Assay results published in EP0322748B1, “Antibiotic NK86-0279, process for production of the same and application of the same” (NIPPON KAYAKU KABUSHIKI KAISHA, priority 1987, dated 1989).
≈ marks a conversion by molar mass, not a printed value.

How the values were obtained:
[1] = tested on: human pulmonary cancer cells (PC-3); assay: growth-inhibitory effect on human pulmonary cancer cells, dye exclusion method; assay type: cell-based; settings: 72 h
Experimental: The growth-inhibitory effects of the compound of the present invention on mouse pulmonary cancer cells (LL) and human plumonary cancer cells (PC-3) were examined.
A 96-well plate was inoculated with mouse pulmonary cancer cells at a ratio of 8.0 x 10² cells per well, while another 96-well plate was inoculated with human pulmonary cancer cells at a ratio of 2.5 x 10³ per well. These cells were incubated in an incubator at 37°C under 5 % CO₂ for 24 hours. Then the compound of the present invention was added thereto at various concentrations. Cells in each well were counted by the dye exclusion method three days after the addition to thereby evaluate the growth-inhibitory effect of the test compound on the mouse pulmonary cancer cells (LL) and that on the human pulmonary cancer cells (PC-3).

[2] = tested on: Penicillium chrysogenum; assay: antifungal spectrum (minimum inhibitory concentration on agar); assay type: cell-based; settings: Czapek Dox solution agar
Source text: (§1) The antifungal spectrum of the compound of the present invention was examined.

[3] = tested on: Saccharomyces cerevisiae; assay: as above; assay type: cell-based; settings: Czapek Dox solution agar
Source text: as §1

[4] = tested on: Botrytis cinerea; assay: as above; assay type: cell-based; settings: potato sucrose agar medium was used
Source text: as §1

[5] = tested on: Torula herbarum; assay: as above; assay type: cell-based; settings: Czapek Dox solution agar
Source text: as §1

[6] = tested on: Aspergillus niger; assay: as above; assay type: cell-based; settings: Czapek Dox solution agar
Source text: as §1

[7] = tested on: Sporobolomyces salmonicolor; assay: as above; assay type: cell-based; settings: Czapek Dox solution agar
Source text: as §1

[8] = tested on: Mucor javanicus; assay: as above; assay type: cell-based; settings: Czapek Dox solution agar
Source text: as §1

[9] = tested on: Fusarium roseum f. sp.; assay: as above; assay type: cell-based; settings: Fusarium sambucinum; Czapek Dox solution agar
Source text: as §1

[10] = tested on: Candida albicans; assay: as above; assay type: cell-based; settings: Czapek Dox solution agar
Source text: as §1

[11] = tested on: mouse malignant melanoma (B16 melanotic melanoma); assay: in-vivo test by intraperitoneal administration against mouse malignant melanoma, tumor volume; parameters: species or system BDF₁ mouse; settings: 11 days after inoculation
Source text: The anti-cancer action of the compound of the present invention against mouse malignant melanoma (B16 melanotic melanoma) was examined. 4 x 10⁵ mouse malignant melanoma cells were inoculated into a subcutaneous portion of the right body side of a 8 week-old male BDF₁ mouse, and the compound of the present invention was intraperitoneally administered to the mouse in various concentrations every day from the next day of the inoculation once a day for 10 days. On the 11 days after the inoculation the minor axis and the major axis of the tumor were measured, and the volume of the tumor was determined by using the following equation: (minor axis)² x […] [formula] . Then, the percentage inhibition of proliferation of each tumor with respect to the compound of the present invention was determined from the ratio of the volume of the tumor on the groups of administration of the compound of the present invention relative to that on the control group.

[12] = tested on: mouse lung cancer (lewis lung carcinoma); assay: anti-cancer action against grafted mouse lung cancer, tumor volume; assay type: in vivo; settings: mouse pulmonary cancer
Source text: The anti-cancer action of the compound of the present invention against mouse lung cancer (lewis lung carcinoma) and mouse breast cancer (Ehrlich B) was examined. 1 x 10⁶ mouse lung cancer cells or mouse breast cancer cells were grafted into a subcutaneous portion of the groin of an eight week-old male BDF₁ or ICR mouse, and the compound of the present invention was intraperitoneally administered to the mouse in various concentrations every day from two days after the graft once a day for 9 days. On the second day after completion of the administration, the minor axis and the major axis of the tumor were measured, and the volume of the tumor was determined by using the following equation: (minor axis)² x […]/2 [formula] . Then, the percentage inhibition of proliferation of each tumor with respect to the compound of the present invention was determined from the ratio of the volume of the tumor on the groups of administration of the compound of the present invention relative to that on the control group.

[13] = tested on: HeLa S₃ cells; assay: growth-inhibitory effect on HeLa S3 culture cells, dye exclusion method; assay type: cell-based; settings: Homo sapiens, 72 h, three days after the addition
Experimental: The growth-inhibitory effect of the compound of the present invention on HeLa S₃ culture cells was examined. A 96-well plate was inoculated with HeLa S₃ cells at a ratio of 1.5 x 10³ cells/well and incubated in an incubator at 37°C under 5% CO2 for 24 hours. One day after the inoculation, the compound of the present invention was added to the culture medium at various concentrations. Three days after the addition, cells in each well were counted by the dye exclusion method to thereby evaluate the growth-inhibitory effect of the compound of the present invention at various concentrations on HeLa S₃ cells.

[14] = tested on: mouse melanoma cells (B16); assay: growth-inhibitory effect on mouse melanoma cells, dye exclusion method; assay type: cell-based
Experimental: The growth-inhibitory effects of the compound of the present invention on mouse melanoma cells (B16) and human melanoma cells (A375) were examined. A 96-well plate was inoculated with mouse melanoma cells at a ratio of 1.5 x 10³ cells per well, while another 96-well plate was inoculated with human melanoma cells at a ratio of 1.0 x 10³ per well. These cells were incubated in an incubator at 37°C under 5 % CO₂. Then the compound of the present invention was added thereto at various concentrations. Cells in each well were counted by the dye exclusion method 65 hours after the addition to thereby evaluate the growth-inhibitory effect of the test compound on the mouse melanoma cells and that on the human melanoma cells.

For CCC1C=CC=CCC(C)C(O)C(C)(O)C(=O)C(C)C(O)C(C)C(=O)C(C)C(O)C(C)C=CC(=O)OC2C(C)C(CC1)OC1(OC(CC(C)O)C(C)CC1=O)C2CC (stereo not shown) [NK86-0279], the IC50 ([1]; human pulmonary cancer cells (PC-3), three days after the addition, read-out: IC₅₀) was 2.13 µg/mL (≈ 2.6 µM), the inhibition at 0.024 µg/mL ([1]; Homo sapiens, PC-3, 0.024 µg/ml, read-out: Growth-inhibitory ratio) was 25.1% and the inhibition at 0.061 µg/mL ([1]; Homo sapiens, PC-3, 0.061 µg/ml, read-out: Growth-inhibitory ratio) was 12%. The inhibition at 0.098 µg/mL ([1]; Homo sapiens, PC-3, 0.098 µg/ml, read-out: Growth-inhibitory ratio) was 28.1%, the inhibition at 0.39 µg/mL ([1]; Homo sapiens, PC-3, 0.39 µg/ml, read-out: Growth-inhibitory ratio) was 28% and the inhibition at 1.56 µg/mL ([1]; Homo sapiens, PC-3, 1.56 µg/ml, read-out: Growth-inhibitory ratio) was 38.1%. It also gave an inhibition at 6.25 µg/mL ([1]; Homo sapiens, PC-3, 6.25 µg/ml, read-out: Growth-inhibitory ratio) of 85.9%, an inhibition at 25 µg/mL ([1]; Homo sapiens, PC-3, 25 µg/ml, read-out: Growth-inhibitory ratio) of 99.3% and an inhibition at 100 µg/mL ([1]; Homo sapiens, PC-3, 100 µg/ml, read-out: Growth-inhibitory ratio) of 97.2%. The MIC [2] was 1.56 µg/mL (≈ 1.9 µM), the MIC [3] was over 100 µg/mL and the MIC [4] was 12.5 µg/mL (≈ 15.3 µM). It also gave an MIC [5] of 3.13 µg/mL (≈ 3.82 µM), an MIC [6] of 6.25 µg/mL (≈ 7.63 µM) and an MIC [7] of 6.25 µg/mL (≈ 7.63 µM). For the same compound, the MIC [8] was over 100 µg/mL, the MIC [9] was 6.25 µg/mL (≈ 7.63 µM) and the MIC [10] was over 100 µg/mL. For the same compound, the “Growth-inhibitory ratio (tumor volume)” value ([11]; 0.012 mg/kg intraperitoneally once a day for 10 days) was 50.7%, the “Growth-inhibitory ratio (tumor volume)” value ([11]; 0.021 mg/kg intraperitoneally once a day for 10 days) was 19.3% and the “Growth-inhibitory ratio (tumor volume)” value ([11]; 0.037 mg/kg intraperitoneally once a day for 10 days) was 41.4%. The “Growth-inhibitory ratio (tumor volume)” value ([11]; 0.064 mg/kg intraperitoneally once a day for 10 days) was 40.5%, the “Growth-inhibitory ratio (tumor volume)” value ([11]; 0.111 mg/kg intraperitoneally once a day for 10 days) was 38.4% and the “Growth-inhibitory ratio (tumor volume)” value ([11]; 0.192 mg/kg intraperitoneally once a day for 10 days) was 54.7%. For the same compound, the “Growth-inhibitory ratio (tumor volume)” value ([11]; 0.333 mg/kg intraperitoneally once a day for 10 days) was 53.2%, the “Growth-inhibitory ratio (tumor volume)” value ([11]; 0.577 mg/kg intraperitoneally once a day for 10 days) was 60.4% and the “Growth-inhibitory ratio (tumor volume)” value ([11]; 1.000 mg/kg intraperitoneally once a day for 10 days) was 80%. For the same compound, the “Growth-inhibitory ratio (tumor volume)” value ([12]; 0.063 mg/kg intraperitoneally once a day for 9 days) was 46.3%, the “Growth-inhibitory ratio (tumor volume)” value ([12]; 0.125 mg/kg intraperitoneally once a day for 9 days) was 57.1% and the “Growth-inhibitory ratio (tumor volume)” value ([12]; 0.250 mg/kg intraperitoneally once a day for 9 days) was 8.9%. The “Growth-inhibitory ratio (tumor volume)” value ([12]; 0.500 mg/kg intraperitoneally once a day for 9 days) was 59.6%, the IC50 ([13]; HeLa S₃ cells, read-out: IC₅₀) was 0.0027 µg/mL (≈ 0.0033 µM) and the inhibition at 0.00064 µg/mL ([13]; HeLa, 0.00064 µg/ml, read-out: Growth-inhibitory ratio) was 22.9%. The inhibition at 0.0032 µg/mL ([13]; HeLa, 0.0032 µg/ml, read-out: Growth-inhibitory ratio) was 53.5%, the inhibition at 0.016 µg/mL ([13]; HeLa, 0.016 µg/ml, read-out: Growth-inhibitory ratio) was 61.2% and the inhibition at 0.08 µg/mL ([13]; HeLa, 0.08 µg/ml, read-out: Growth-inhibitory ratio) was 73.5%. For the same compound, the inhibition at 0.4 µg/mL ([13]; HeLa, 0.4 µg/ml, read-out: Growth-inhibitory ratio) was 81.2%, the inhibition at 0.0061 µg/mL ([14]; Mus musculus, 65 h, B16, 0.0061 µg/ml, read-out: Growth-inhibitory ratio) was 5.3% and the inhibition at 0.024 µg/mL ([14]; Mus musculus, 65 h, B16, 0.024 µg/ml, read-out: Growth-inhibitory ratio) was 36.8%. The inhibition at 0.098 µg/mL ([14]; Mus musculus, 65 h, B16, 0.098 µg/ml, read-out: Growth-inhibitory ratio) was 43.1%, the inhibition at 0.39 µg/mL ([14]; Mus musculus, 65 h, B16, 0.39 µg/ml, read-out: Growth-inhibitory ratio) was 45.3% and the inhibition at 1.56 µg/mL ([14]; Mus musculus, 65 h, B16, 1.56 µg/ml, read-out: Growth-inhibitory ratio) was 48.9%. For the same compound, the inhibition at 6.25 µg/mL ([14]; Mus musculus, 65 h, B16, 6.25 µg/ml, read-out: Growth-inhibitory ratio) was 89.7%, the inhibition at 25 µg/mL ([14]; Mus musculus, 65 h, B16, 25 µg/ml, read-out: Growth-inhibitory ratio) was 105% and the inhibition at 100 µg/mL ([14]; Mus musculus, 65 h, B16, 100 µg/ml, read-out: Growth-inhibitory ratio) was 105%. It also gave an IC50 ([14]; mouse melanoma cells (B16), 65 hours after the addition, read-out: IC₅₀) of 1.62 µg/mL (≈ 1.98 µM).
